Results from US7288630B2, “Potassium channel KCNQ5 and sequences encoding the same” (NeuroSearch A/S, priority 1999, dated 2007).

Biological target: T1, KCNQ5 (Homo sapiens, UniProt Q9NR82)
T1 construct: A complete cDNA was assembled and cloned into the oocyte expression vector PTLN; expressed in transfected cells; host or cells: Xenopus oocytes injected with cRNA from pTLN
Test: Two-electrode voltage clamp of KCNQ5 homomers expressed in Xenopus oocytes
Assay type: cell-based
Description: KCNQ5 was expressed in Xenopus oocytes and its activity was investigated by two-electrode voltage clamping.
After linearization of the KCNQ5-containing pTLN vector with Hpal, capped cRNA was transcribed in vitro using the mMessage mMachine cRNA synthesis kit (Ambion). Usually 5-15 ng of cRNA were injected into Xenopus oocytes previously isolated by manual defolliculation and short collagenase treatment. In co-expression experiments cRNAs were injected at a 1:1 ratio. Oocytes were kept at 17° C. in modified Barth's solution (90 mM NaCl, 1 mM KCl, 0.41 mM CaCl2, 0.33 mM Ca(NO3)2, 0.82 mM MgSO4, 10 mM HEPES, 100 U penicillin—100 μg streptomycin/ml, pH 7.6).
Standard two-electrode voltage-clamp measurements were performed at room temperature 2-4 days after injection using a Turbotec 05 amplifier (npi instruments, Tamm, Germany) and pClamp 5.5 software (Axon Instruments). Currents were usually recorded in ND98 solution (see Table 2). Linopirdine (RBI, Natick, Mass.) was prepared as a 100 mM stock solution in DMSO and added to a final concentration of 200 μM to ND98.
To determine the voltage dependence of apparent open probability, oocytes were clamped for 2 seconds to values between −80 mV to +40 mV, in 10 mV steps, followed by a constant −30 mV test pulse. Tail currents extrapolated to t=0 were obtained from a mono-exponential fit, normalised to the value at 0 mV and used for the analysis of apparent popen. Data analysis used PClamp6 and Microcal Origin 5.0.

T1 sequence (Q9NR82 36-932): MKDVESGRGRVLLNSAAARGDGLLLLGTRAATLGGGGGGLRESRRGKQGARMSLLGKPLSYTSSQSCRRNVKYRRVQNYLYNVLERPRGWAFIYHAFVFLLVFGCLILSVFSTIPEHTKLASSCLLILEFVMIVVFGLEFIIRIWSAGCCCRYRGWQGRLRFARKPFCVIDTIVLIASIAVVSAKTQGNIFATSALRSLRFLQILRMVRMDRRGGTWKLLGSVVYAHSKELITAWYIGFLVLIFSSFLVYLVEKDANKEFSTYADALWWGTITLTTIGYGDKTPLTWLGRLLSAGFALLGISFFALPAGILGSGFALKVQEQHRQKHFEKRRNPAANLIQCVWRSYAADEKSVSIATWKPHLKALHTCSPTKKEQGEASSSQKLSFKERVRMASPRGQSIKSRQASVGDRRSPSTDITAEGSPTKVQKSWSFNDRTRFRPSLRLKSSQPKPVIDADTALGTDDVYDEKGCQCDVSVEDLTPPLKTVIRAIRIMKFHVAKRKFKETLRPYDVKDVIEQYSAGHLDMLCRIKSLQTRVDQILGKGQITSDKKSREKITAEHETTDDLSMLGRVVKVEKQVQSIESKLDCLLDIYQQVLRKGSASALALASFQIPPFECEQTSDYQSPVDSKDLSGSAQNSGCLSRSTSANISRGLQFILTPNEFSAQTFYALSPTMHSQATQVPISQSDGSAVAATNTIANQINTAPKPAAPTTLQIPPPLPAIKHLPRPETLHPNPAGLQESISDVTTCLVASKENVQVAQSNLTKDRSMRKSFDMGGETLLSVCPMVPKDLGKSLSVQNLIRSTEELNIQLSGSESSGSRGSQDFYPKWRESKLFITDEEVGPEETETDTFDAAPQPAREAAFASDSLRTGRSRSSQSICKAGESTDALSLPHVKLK

## [Ba+2] [Ba^++]
5 mM
  inhibition of KCNQ5 currents: more than 80%

## O=C(O)c1cccnc1Nc1cccc(C(F)(F)F)c1 [Niflumic acid, niflumic acid]
500 μM niflumic acid (FIG. 5B)
  shift of voltage dependence of apparent popen towards negative potentials: about 20 mV

## O=C1c2ccccc2C(Cc2ccncc2)(Cc2ccncc2)c2ccccc21 [XE991, 10,10-bis-(4-pyridinyl-methyl)-9-(10H)-antracenone]
Extracellular application, Xenopus oocytes, from fit curves (FIG. 5A), read-out: IC50, inhibition of KCNQ5 homomers
  IC50: 65 ± 4 µM
